Experimental data taken from patent US8372799B2, “Reverse protein” (Apeptico Forschung und Entwicklung GmbH, priority 2007, dated 2013).
Where a SMILES comes first, the peptide text is derived from it. Bridges are numbered along the chain shown (N, C = ends).

System: pulmonary oedema in Wistar rats
Assay: Experimental animal study pulmonary oedema: oxygen content of arterial blood after acid lung rinsing
Type: in vivo, rat
Conditions: 125 μg protein intratracheal, 180 minutes after lung rinsing, before rinsing = 100%, without protein 20%
Excerpt: For the simulation of an acute lung injury and for the formation of a pulmonary oedema, the lungs of laboratory animals, e.g., mice or rats, can be rinsed several times with an acidified saline solution in a manner common in laboratories (for example, according to Isik F. et al., Eur J Cardiothorac Surg (2005); 28: 301-305). The result is a decrease in lung function. If a protein according to the present invention, e.g., a protein of amino acid sequence SEQ ID NO:1, SEQ ID NO:2 or SEQ ID NO:3, is injected as a fog or in an aqueous solution into the lungs of the laboratory animals, a distinct improvement in the lung function will occur within 3 to 5 hours, as indicated by the increased oxygen content in the arterial blood. Thus, a protein according to the present invention can be used for the treatment of oedemas such as pulmonary oedemas.
Male Wistar rats (weighing from 250 g to 350 g) are anesthetized with Rompun® (0.02 ml/100 g) and Ketavet® (0.1 ml/100 g). The respiration is done with a cycle of […], with an inhalation time of 0.2 seconds and an exhalation time of 0.5 seconds. The body temperature ranges, on average, from 37° C. to 39° C. […]
At intervals of 60 minutes each, arterial blood (0.1 ml) is withdrawn from the animals, and the oxygen content is determined in % relative to the normal value.
The verification of the stimulating effect of a protein according to the present invention, e.g., of a protein comprising amino acid sequence SEQ ID NO:1, SEQ ID NO:2 or SEQ ID NO:3, on the lung function is made via experimental animal studies in which a pulmonary oedema is induced. […] In each case, 5 animals are used for objectifying the measured values.
For the intratracheal inhalation, 125 μg protein are, in each case, dissolved in 150 mM saline solution pH 7.3. The oxygen content of the arterial blood is measured immediately before rinsing the lungs, 60 minutes after rinsing the lungs and 180 minutes after rinsing the lungs.
The oxygen content immediately before rinsing the lungs is determined to be 100%. […]

Structure (SMILES) | oxygen content in the arterial blood
C[C@@H]1NC(=O)CNC(=O)[C@H](CCC(=O)O)NC(=O)[C@@H]2CCCN2C(=O)[C@H]([C@@H](C)O)NC(=O)[C@H](CCC(=O)O)NC(=O)[C@H](CCCNC(=N)N)NC(=O)[C@H](CCC(N)=O)NC(=O)[C@@H](N)CSSC[C@@H](C(=O)O)NC(=O)CNC(=O)CNC(=O)[C@H](CCCCN)NC(=O)[C@H](C)NC(=O)[C@H](CCC(=O)O)NC1=O [SEQ ID NO:3, (NH2)Cys-Gln-Arg-Glu-Thr-Pro-Glu-Gly-Ala-Glu-Ala-Lys-Gly-Gly-Cys(COOH)] (H-CQRETPEGAEAKGGC-OH; disulfide 1-15) | 70%
CC[C@H](C)[C@H](NC(=O)[C@H](C)N)C(=O)N[C@@H](CCCCN)C(=O)N[C@@H](CO)C(=O)N1CCC[C@H]1C(=O)N[C@H]1CSSC[C@@H](C(=O)N2CCC[C@H]2C(=O)N[C@@H](CO)C(=O)N[C@H](C(=O)N[C@@H](Cc2c[nH]cn2)C(=O)N[C@H](C(=O)O)C(C)C)[C@@H](C)O)NC(=O)CNC(=O)CNC(=O)[C@H](CCCCN)NC(=O)[C@H](C)NC(=O)[C@H](CCC(=O)O)NC(=O)[C@H](C)NC(=O)CNC(=O)[C@H](CCC(=O)O)NC(=O)[C@@H]2CCCN2C(=O)[C@H]([C@@H](C)O)NC(=O)[C@H](CCC(=O)O)NC(=O)[C@H](CCCNC(=N)N)NC(=O)[C@H](CCC(N)=O)NC1=O [SEQ ID NO:1] (H-AIKSPCQRETPEGAEAKGGCPSTHV-OH; disulfide 6-20) | 60%
C[C@@H]1NC(=O)CNC(=O)[C@H](CCC(=O)O)NC(=O)[C@@H]2CCCN2C(=O)[C@H]([C@@H](C)O)NC(=O)[C@H](CCC(=O)O)NC(=O)[C@H](CCCNC(=N)N)NC(=O)[C@H](CCC(N)=O)NC(=O)[C@@H](NC(=O)[C@@H]2CCCN2C(=O)[C@H](CO)NC(=O)[C@@H](N)CCCCN)CSSC[C@@H](C(=O)N2CCC[C@H]2C(=O)N[C@@H](CO)C(=O)O)NC(=O)CNC(=O)CNC(=O)[C@H](CCCCN)NC(=O)[C@H](C)NC(=O)[C@H](CCC(=O)O)NC1=O [SEQ ID NO:2] (H-KSPCQRETPEGAEAKGGCPS-OH; disulfide 4-18) | 63%
